The results in this text go back to PubChem BioAssay AID200 (DTP/NCI, 2004).

The assay relates to B6C3F1 mice, B16 melanoma ip, median survival T/C. The assay is described as follows: NCI In Vivo Anticancer Drug Screen. Data for tumor model B16 Melanoma (intraperitoneal) in B6C3F1 mice. The following applies: endpoint: median survival time, schedule: Q01DX009 (ip), higher = longer survival. In a few lines: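 Mice bearing transplanted tumor were dosed with compound or vehicle, and survival was recorded. Activity is expressed as the treated-group measurement (T) divided by the vehicle control measurement (C).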

The mark [1] stands for this setting: dose: 12.5 mg/kg/injection, vehicle: saline with Tween-80.
The mark [2] stands for this setting: dose: 25.0 mg/kg/injection, vehicle: saline with Tween-80.
Setting [3] is: dose: 50.0 mg/kg/injection, vehicle: saline with Tween-80.
Setting [4] is: dose: 100.0 mg/kg/injection, vehicle: saline with Tween-80.
Setting [5] is: dose: 12.5 mg/kg/injection, vehicle: saline.
Where [6] appears, read: dose: 25.0 mg/kg/injection, vehicle: saline.
Setting [7] is: dose: 50.0 mg/kg/injection, vehicle: saline.
The mark [8] stands for this setting: dose: 100.0 mg/kg/injection, vehicle: saline.
Where [9] appears, read: dose: 200.0 mg/kg/injection, vehicle: saline with Tween-80.
Setting [10] is: dose: 200.0 mg/kg/injection, vehicle: saline.
Setting [11] is: dose: 6.25 mg/kg/injection, vehicle: Klucel (hydroxypropylcellulose) (HPC).
Setting [12] is: dose: 12.5 mg/kg/injection, vehicle: Klucel (hydroxypropylcellulose) (HPC).
Where [13] appears, read: dose: 25.0 mg/kg/injection, vehicle: Klucel (hydroxypropylcellulose) (HPC).
Where [14] appears, read: dose: 6.25 mg/kg/injection, vehicle: saline with Tween-80.
[15] abbreviates: dose: 50.0 mg/kg/injection, vehicle: Klucel (hydroxypropylcellulose) (HPC).

SMILES strings stand for the structures. Several values for one entry are separate records, joined by “and”; a condition that tells them apart may be missing. Equal values may be shown once. Inconclusive results and toxic doses are left out.

As to `O=C1NCC(Br)C(=O)N1` (configuration not stated), the T/C is, setting by setting: (dose: 6.25 mg/kg/injection, vehicle: saline + Tween-80 + alcohol) 90 % of control; (dose: 12.5 mg/kg/injection, vehicle: saline + Tween-80 + alcohol) 99 % of control and 101 % of control; under setting [1], 102 % of control; (dose: 25.0 mg/kg/injection, vehicle: saline + Tween-80 + alcohol) 100 % of control and 106 % of control; under setting [2], 94 % of control and 105 % of control; (dose: 50.0 mg/kg/injection, vehicle: saline + Tween-80 + alcohol) 114 % of control and 105 % of control. Moreover, the T/C runs as follows: under setting [3], 114 % of control; (dose: 100.0 mg/kg/injection, vehicle: saline + Tween-80 + alcohol) 109 % of control and 100 % of control; under setting [4], 116 % of control; (dose: 200.0 mg/kg/injection, vehicle: saline + Tween-80 + alcohol) 96 % of control.
On to `NCCCNCCSP(=O)(O)O`, for which the T/C under setting [1] was 108 % of control; the T/C under setting [5] is 104 % of control and 106 % of control; the T/C under setting [2] was 97 % of control; the T/C under setting [6] was 115 % of control and 97 % of control; the T/C under setting [3] is 105 % of control; the T/C under setting [7] is 109 % of control and 111 % of control. Besides, the T/C is 108 % of control under setting [4]; 109 % of control and 115 % of control under setting [8]; 104 % of control under setting [9]; 121 % of control and 124 % of control under setting [10].
For the compound `CCN(CC)c1ccc2cc(-c3nc4ccccc4n3C)c(=O)oc2c1`, the T/C was 94 % of control and 101 % of control under setting [11]; 102 % of control and 106 % of control under setting [12]; 108 % of control and 111 % of control under setting [13].
`Nc1ncnc2c1ncn2C1OC(CO)C(O)C1O` (configuration not stated): the T/C by setting is: (dose: 1.56 mg/kg/injection, vehicle: saline) 94 % of control; (dose: 3.12 mg/kg/injection, vehicle: saline) 94 % of control; (dose: 6.25 mg/kg/injection, vehicle: saline) 96 % of control; under setting [5], 107 % of control; under setting [6], 63 % of control; under setting [7], 45 % of control. For the same compound, the T/C under setting [8] was 37 % of control.
Consider `CC1=CC2C(O)(CC(CO)=CC3C4C(C)(C)C4(OC(=O)c4ccccc4)C(OC(=O)c4ccccc4)C(C)C32O)C1=O` (configuration not stated), for which the T/C (dose: 0.13 mg/kg/injection, vehicle: saline with Tween-80) is 98 % of control; the T/C (dose: 0.25 mg/kg/injection, vehicle: saline with Tween-80) is 90 % of control; the T/C (dose: 0.5 mg/kg/injection, vehicle: saline with Tween-80) was 93 % of control; the T/C (dose: 1.0 mg/kg/injection, vehicle: saline with Tween-80) is 95 % of control; the T/C (dose: 2.0 mg/kg/injection, vehicle: saline with Tween-80) is 90 % of control.
Take `COCCCNC1=C(C#N)C(=O)NC(c2cccc([N+](=O)[O-])c2)S1` (configuration not stated): the T/C (dose: 3.13 mg/kg/injection, vehicle: saline with Tween-80) was 112 % of control and 98 % of control; the T/C under setting [14] was 91 % of control and 96 % of control; the T/C under setting [3] was 94 % of control and 101 % of control (2×); the T/C under setting [4] is 111 % of control and 98 % of control; the T/C under setting [9] is 111 % of control; the T/C (dose: 400.0 mg/kg/injection, vehicle: saline with Tween-80) was 87 % of control.
For the compound `CSc1nc(=O)[nH]nc1SCc1ccccc1`, the T/C under setting [12] is 105 % of control; the T/C under setting [13] was 104 % of control; the T/C under setting [15] is 104 % of control; the T/C (dose: 100.0 mg/kg/injection, vehicle: Klucel (hydroxypropylcellulose) (HPC)) is 107 % of control; the T/C (dose: 200.0 mg/kg/injection, vehicle: Klucel (hydroxypropylcellulose) (HPC)) is 96 % of control; the T/C (dose: 400.0 mg/kg/injection, vehicle: Klucel (hydroxypropylcellulose) (HPC)) was 115 % of control.
For `CN(C)CCc1ccc(O)cc1`, the T/C reads like this: under setting [8], 89 % of control; under setting [10], 92 % of control.
For `CC1(C)CC1(Br)Br`, the T/C under setting [14] was 100 % of control; the T/C under setting [1] is 93 % of control; the T/C under setting [2] is 104 % of control; the T/C under setting [3] is 97 % of control; the T/C under setting [4] was 100 % of control; the T/C under setting [9] was 92 % of control.
As to `CN1C(=O)C(=Cc2ccc(O)cc2)C(=O)N(C)C1=O`, the T/C under setting [1] was 97 % of control; the T/C under setting [2] is 99 % of control; the T/C under setting [3] was 101 % of control; the T/C under setting [4] was 104 % of control; the T/C under setting [9] is 94 % of control.
`NC(CCCCNC=O)C(=O)O` (configuration not stated): the T/C is, setting by setting: under setting [8], 110 % of control; under setting [10], 121 % of control; (dose: 400.0 mg/kg/injection, vehicle: saline) 116 % of control.
As for `CCCCOCN(COCCCC)C12CC3CC(CC(C3)C1)C2`, the T/C was 108 % of control and 107 % of control under setting [1]; 104 % of control and 105 % of control under setting [2]; 109 % of control and 100 % of control under setting [3]; 104 % of control and 106 % of control under setting [4]; 105 % of control under setting [9].
On to `CCCN(CCC)C(C)C(O)c1cc2c(c3ccccc13)CCCC2` (configuration not stated), for which the T/C is 99 % of control (dose: 0.05 mg/kg/injection, vehicle: Klucel (hydroxypropylcellulose) (HPC)); 91 % of control and 103 % of control (dose: 0.1 mg/kg/injection, vehicle: Klucel (hydroxypropylcellulose) (HPC)); 97 % of control and 107 % of control (dose: 0.2 mg/kg/injection, vehicle: Klucel (hydroxypropylcellulose) (HPC)); 109 % of control (dose: 0.39 mg/kg/injection, vehicle: Klucel (hydroxypropylcellulose) (HPC)); 96 % of control and 101 % of control (dose: 0.4 mg/kg/injection, vehicle: Klucel (hydroxypropylcellulose) (HPC)); 108 % of control (dose: 0.78 mg/kg/injection, vehicle: Klucel (hydroxypropylcellulose) (HPC)). In addition, the T/C is 114 % of control and 95 % of control and 96 % of control (dose: 1.56 mg/kg/injection, vehicle: Klucel (hydroxypropylcellulose) (HPC)); 94 % of control (dose: 3.12 mg/kg/injection, vehicle: Klucel (hydroxypropylcellulose) (HPC)); 96 % of control and 101 % of control under setting [11]; 86 % of control under setting [15].
As to `O=c1c(O)c(-c2ccc(O)c(O)c2)oc2cc(O)cc(O)c12`, the T/C is, setting by setting: (dose: 12.5 mg/kg/injection, vehicle: suspension in saline) 103 % of control; (dose: 25.0 mg/kg/injection, vehicle: suspension in saline) 107 % of control; (dose: 50.0 mg/kg/injection, vehicle: suspension in saline) 102 % of control; (dose: 100.0 mg/kg/injection, vehicle: suspension in saline) 109 % of control.
With `COC1C(C)OC(OC2CC(C)(O)Cc3cc4c(c(O)c32)C(=O)c2c(O)cc3c(c2C4=O)OC2OC3(C)C(O)C(N(C)C)C2O)C(OC)C1(C)OC` (configuration not stated), the T/C is, setting by setting: (dose: 0.16 mg/kg/injection, vehicle: other) 92 % of control; (dose: 0.31 mg/kg/injection, vehicle: other) 95 % of control and 102 % of control; (dose: 0.62 mg/kg/injection, vehicle: other) 113 % of control; (dose: 0.63 mg/kg/injection, vehicle: other) 116 % of control and 124 % of control and 97 % of control; (dose: 5.0 mg/kg/injection, vehicle: other) 157 % of control and 175 % of control.
